For test [1], the target named is T1, AR-VP16 (Homo sapiens, UniProt P10275).
T1 sequence (P10275 560-920 limits assumed): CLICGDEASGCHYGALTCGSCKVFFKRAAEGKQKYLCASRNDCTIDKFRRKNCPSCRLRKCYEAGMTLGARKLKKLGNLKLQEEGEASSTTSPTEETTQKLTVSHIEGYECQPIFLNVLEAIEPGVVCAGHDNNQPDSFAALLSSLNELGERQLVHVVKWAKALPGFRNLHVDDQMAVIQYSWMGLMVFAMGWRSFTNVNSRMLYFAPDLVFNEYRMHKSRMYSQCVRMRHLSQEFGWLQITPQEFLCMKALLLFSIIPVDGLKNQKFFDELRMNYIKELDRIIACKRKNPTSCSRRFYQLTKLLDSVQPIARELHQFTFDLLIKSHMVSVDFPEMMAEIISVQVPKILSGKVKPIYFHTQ
As to the kind of experiment: AR-VP16 DNA Binding Assay, antagonist mode (HepG2 cells, 0.1 nM R1881). Type of test: cell-based. Put shortly: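 Transfected HepG2 cells expressing AR-VP16 received serially diluted compound in charcoal-stripped-serum RPMI the day after transfection, with 0.1 nM R1881 (final) added only for antagonist testing. After 48 h, cells were lysed for measurement.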

Test [2] addresses T1, AR-VP16. Briefly: AR-VP16 DNA Binding Assay, agonist mode (HepG2 cells). It is filed as cell-based. The following applies: Emax >20x DMSO control = agonist.

Bounds are passed on as bounds.

In the case of `Cc1ccc(CCN2C(=S)N(c3cnc(C#N)c(C(F)(F)F)c3)C(=O)C23CCC3)cc1` [Compound 85, 5-(5-(4-Methylphenethyl)-8-oxo-6-thioxo-5,7-diazaspiro[3.4]octan-7-yl)-3-(trifluoromethyl)picolinonitrile], the IC50 at AR-VP16 [1] was under 1000 nM. Also, the “ARVP16 DNA Binding Assay (Agonist mode): Agonist?” value (from here on “ARVP16 DNA Binding Assay”) at AR-VP16 [2] is listed as “Yes (Agonist defined as a compound whose Emax in the ARVP16 DNA Binding Assay (Agonist mode) is >20x DMSO control)”.

`N#Cc1ncc(N2C(=O)C3(CCC3)N(c3ccc(CCCO)cc3)C2=S)cc1C(F)(F)F` [Compound 86, 5-(5-(4-(3-hydroxypropyl)phenyl)-8-oxo-6-thioxo-5,7-diazaspiro[3.4]octan-7-yl)-3-(trifluoromethyl)picolinonitrile] displayed an IC50 on AR-VP16 [1] of under 1000 nM. Further, the “ARVP16 DNA Binding Assay” value on AR-VP16 [2] is “No (Agonist defined as a compound whose Emax in the ARVP16 DNA Binding Assay (Agonist mode) is >20x DMSO control)”.

Molecule `N#Cc1ncc(N2C(=O)C3(CCC3)N(c3ccc4cn[nH]c4c3)C2=S)cc1C(F)(F)F` [Compound 88, 5-(5-(1H-Indazol-6-yl)-8-oxo-6-thioxo-5,7-diazaspiro[3.4]octan-7-yl)-3-(trifluoromethyl)picolinonitrile] had a half-maximal inhibitory concentration (IC50) on AR-VP16 [1] of under 1000 nM. Moreover, the “ARVP16 DNA Binding Assay” value at AR-VP16 [2] was “No (Agonist defined as a compound whose Emax in the ARVP16 DNA Binding Assay (Agonist mode) is >20x DMSO control)”.

`CNC(=O)c1ccc(N2C(=S)N(c3cnc(C#N)c(C(F)(F)F)c3)C(=O)C23CCC3)c(F)c1` [Compound 89, 4-(7-(6-Cyano-5-(trifluoromethyl)pyridin-3-yl)-8-oxo-6-thioxo-5,7-diazaspiro[3.4]octan-5-yl)-3-fluoro-N-methylbenzamide] came in with an IC50 on AR-VP16 [1] of under 1000 nM. Further, the “ARVP16 DNA Binding Assay” value on AR-VP16 [2] was “No (Agonist defined as a compound whose Emax in the ARVP16 DNA Binding Assay (Agonist mode) is >20x DMSO control)”.

For `CN1CCN(c2ccc(N3C(=S)N(c4cnc(C#N)c(C(F)(F)F)c4)C(=O)C34CCC4)cc2)CC1` [Compound 90, 5-(5-(4-(4-Methylpiperazin-1-yl)phenyl)-8-oxo-6-thioxo-5,7-diazaspiro[3.4]octan-7-yl)-3-(trifluoromethyl)picolinonitrile], the IC50 on AR-VP16 [1] was over 1000 nM. For the same molecule, at AR-VP16 [2], the “ARVP16 DNA Binding Assay” value is given as “No (Agonist defined as a compound whose Emax in the ARVP16 DNA Binding Assay (Agonist mode) is >20x DMSO control)”.

Take `N#Cc1ncc(N2C(=O)C3(CCC3)N(c3ccc(S(=O)(=O)CCc4ccncc4)cc3)C2=S)cc1C(F)(F)F` [Compound 91, 5-(8-Oxo-5-(4-((2-(pyridin-4-yl)ethyl)sulfonyl)phenyl)-6-thioxo-5,7-diazaspiro[3.4]octan-7-yl)-3-(trifluoromethyl)picolinonitrile]: at AR-VP16 [1], the IC50 was over 1000 nM. At AR-VP16 [2], the “ARVP16 DNA Binding Assay” value is “No (Agonist defined as a compound whose Emax in the ARVP16 DNA Binding Assay (Agonist mode) is >20x DMSO control)”.

In turn, `CN1CCN(Cc2ccc(N3C(=S)N(c4cnc(C#N)c(C(F)(F)F)c4)C(=O)C34CCC4)cc2)CC1` [Compound 93, 5-(5-(4-((4-Methylpiperazin-1-yl)methyl)phenyl)-8-oxo-6-thioxo-5,7-diazaspiro[3.4]octan-7-yl)-3-(trifluoromethyl)picolinonitrile] gave an IC50 at AR-VP16 [1] of over 1000 nM. In addition, at AR-VP16 [2], the “ARVP16 DNA Binding Assay” value is recorded as “No (Agonist defined as a compound whose Emax in the ARVP16 DNA Binding Assay (Agonist mode) is >20x DMSO control)”.

Regarding `Cc1ccc(-c2ccc(N3C(=S)N(c4cnc(C#N)c(C)c4)C(=O)C34CCC4)cc2)cn1` [Compound 96, 3-Methyl-5-(5-(4-(6-methylpyridin-3-yl)phenyl)-8-oxo-6-thioxo-5,7-diazaspiro[3.4]octan-7-yl)picolinonitrile], the IC50 on AR-VP16 [1] is under 1000 nM. For the same molecule, on AR-VP16 [2], the “ARVP16 DNA Binding Assay” value is “No (Agonist defined as a compound whose Emax in the ARVP16 DNA Binding Assay (Agonist mode) is >20x DMSO control)”.

On AR-VP16 [1], `Cc1ccncc1-c1ccc(N2C(=S)N(c3cnc(C#N)c(C)c3)C(=O)C23CCC3)cc1` [Compound 97, 3-Methyl-5-(5-(4-(4-methylpyridin-3-yl)phenyl)-8-oxo-6-thioxo-5,7-diazaspiro[3.4]octan-7-yl)picolinonitrile] yielded an IC50 of under 1000 nM. The “ARVP16 DNA Binding Assay” value at AR-VP16 [2] was “Yes (Agonist defined as a compound whose Emax in the ARVP16 DNA Binding Assay (Agonist mode) is >20x DMSO control)”.

In turn, `Cc1cc(N2C(=O)C3(CCC3)N(c3ccc(-c4cccnc4C)cc3)C2=S)cnc1C#N` [Compound 99, 3-Methyl-5-(5-(4-(2-methylpyridin-3-yl)phenyl)-8-oxo-6-thioxo-5,7-diazaspiro[3.4]octan-7-yl)picolinonitrile] returned an IC50 at AR-VP16 [1] of under 1000 nM. Further, at AR-VP16 [2], the “ARVP16 DNA Binding Assay” value is on record as “Yes (Agonist defined as a compound whose Emax in the ARVP16 DNA Binding Assay (Agonist mode) is >20x DMSO control)”.

In turn, `Cc1cc(N2C(=O)C(C)(C)N(c3ccc(O)cc3)C2=S)cnc1C#N` [Compound 101, 5-(3-(4-Hydroxyphenyl)-4,4-dimethyl-5-oxo-2-thioxoimidazolidin-1-yl)-3-methylpicolinonitrile] yielded an IC50 on AR-VP16 [1] of over 1000 nM. Moreover, at AR-VP16 [2], the “ARVP16 DNA Binding Assay” value was “No (Agonist defined as a compound whose Emax in the ARVP16 DNA Binding Assay (Agonist mode) is >20x DMSO control)”.

As to `CNC(=O)c1ccc(N2C(=S)N(c3cnc(C#N)c(C)c3)C(=O)C23CCC3)c(F)c1` [Compound 104, 4-(7-(6-Cyano-5-methylpyridin-3-yl)-8-oxo-6-thioxo-5,7-diazaspiro[3.4]octan-5-yl)-3-fluoro-N-methylbenzamide], at AR-VP16 [1], the IC50 is under 1000 nM. For the same molecule, the “ARVP16 DNA Binding Assay” value on AR-VP16 [2] is on record as “No (Agonist defined as a compound whose Emax in the ARVP16 DNA Binding Assay (Agonist mode) is >20x DMSO control)”.

Regarding `Cc1cc(N2C(=O)C3(CCC3)N(c3ccc(-c4cncc(F)c4)cc3)C2=S)cnc1C#N` [Compound 105, 5-(5-(4-(5-Fluoropyridin-3-yl)phenyl)-8-oxo-6-thioxo-5,7-diazaspiro[3.4]octan-7-yl)-3-methylpicolinonitrile], the IC50 at AR-VP16 [1] is under 1000 nM. At AR-VP16 [2], the “ARVP16 DNA Binding Assay” value is “No (Agonist defined as a compound whose Emax in the ARVP16 DNA Binding Assay (Agonist mode) is >20x DMSO control)”.

In turn, `CNC(=O)c1ccc(N2C(=S)N(c3cnc(C#N)c(C)c3)C(=O)C23CCC3)cc1C` [Compound 106, 4-(7-(6-Cyano-5-methylpyridin-3-yl)-8-oxo-6-thioxo-5,7-diazaspiro[3.4]octan-5-yl)-N,2-dimethylbenzamide] had an IC50 at AR-VP16 [1] of under 1000 nM. Besides, the “ARVP16 DNA Binding Assay” value at AR-VP16 [2] is “No (Agonist defined as a compound whose Emax in the ARVP16 DNA Binding Assay (Agonist mode) is >20x DMSO control)”.

Consider `CNC(=O)c1ccc(N2C(=S)N(c3cnc(C#N)c(C)c3)C(=O)C23CCC3)cc1OC` [Compound 107, 4-(7-(6-Cyano-5-methylpyridin-3-yl)-8-oxo-6-thioxo-5,7-diazaspiro[3.4]octan-5-yl)-2-methoxy-N-methylbenzamide], for which, at AR-VP16 [1], the IC50 is under 1000 nM. Also, the “ARVP16 DNA Binding Assay” value at AR-VP16 [2] is recorded as “No (Agonist defined as a compound whose Emax in the ARVP16 DNA Binding Assay (Agonist mode) is >20x DMSO control)”.

Broadly, the IC50 is the concentration that inhibits the measured activity by half. A high value points to lower potency.

The values above are taken from patent US9108944B2, “Androgen receptor modulators and uses thereof” (ARAGON PHARMACEUTICALS, INC., priority 2010, dated 2015).
